pIC50: −log10 of the molar value. Residues, ends and D or L forms follow the SMILES beside them. Where only a bound is given, the exact number is not on record here.

Results on 10 compounds are retold here after US11236129B2, “IL-17A binding peptides and medical uses thereof” (Dompe' Farmaceutici S.P.A., priority 2018, dated 2022).

The format of data set [1] is physicochemical. The note with it: pH 7.8. Summed up:
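Peptides dissolved in phosphate buffer pH 7.8 as 10 mM stocks (more dilute for less soluble ones) and stored at 25 °C. Content measured by reversed-phase UHPLC (C18, 0.5% formic acid water/acetonitrile gradient, DAD 220-400 nm, ESI-MS ion trap) after 1:100 dilution to 100 μM, against 100 μM standards, at T0, 3 days and 1 week.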

A short description of data set [2]: Isoelectric point, log D and log P (SiriusT3). Format: physicochemical. The conditions noted are these: for IP (isoelectric point): 25±1° C., 0.15 M KCl; for logP: octanol/ISA water, read-out: logP; for logD: pH 7.4, pH 7.4, octanol/ISA water, read-out: Log D (7.4).
Data set [3] deals with IL-17RA/IL17RC dimerization induced by IL-17A (Homo sapiens, UniProt Q16552). In words: IL-17RA/IL17RC dimerization assay in response to IL-17A (PathHunter Cytokine Receptor Assay). Format: cell-based. The note with it: IL-17A at EC80; read-out: IC50 in IL-17RA/IL7RC dimerization assay. A digest of the protocol: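 PathHunter cells with IL-17RA and IL-17RC tagged for β-galactosidase complementation were preincubated 60 min with peptide (1% vehicle). IL-17A was then added at EC80 for 6–16 h at 37 °C, and chemiluminescence was read. Inhibition is relative to the EC80 and vehicle controls.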
Chain of IL-17RA/IL17RC dimerization induced by IL-17A (Q16552 24-155): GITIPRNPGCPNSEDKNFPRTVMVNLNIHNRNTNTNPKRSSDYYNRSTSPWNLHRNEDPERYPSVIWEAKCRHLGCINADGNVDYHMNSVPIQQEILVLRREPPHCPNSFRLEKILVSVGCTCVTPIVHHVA

Regarding `CC[C@H](C)[C@H](NC(=O)[C@H](Cc1c[nH]c2ccccc12)NC(=O)[C@H](CCC(=O)O)NC(=O)[C@H](Cc1ccc(O)cc1)NC(=O)[C@H](CC(C)C)NC(=O)[C@H](CC(=O)O)NC(=O)[C@H](C)NC(=O)[C@@H]1CCCN1C(=O)[C@@H](NC(=O)[C@@H](NC(=O)[C@@H](NC(=O)[C@H](CCSC)NC(=O)[C@@H](NC(=O)[C@H](Cc1c[nH]c2ccccc12)NC(=O)[C@@H](NC(=O)[C@H](CCC(=O)O)NC(=O)[C@H](Cc1c[nH]c2ccccc12)NC(=O)[C@H](Cc1c[nH]c2ccccc12)NC(=O)[C@@H](NC(=O)[C@H](CCC(=O)O)NC(=O)[C@H](CCCCN)NC(=O)CNC(=O)CNC(C)=O)[C@@H](C)O)[C@@H](C)O)C(C)C)C(C)C)[C@@H](C)O)[C@@H](C)CC)C(=O)N[C@@H](CCC(=O)O)C(=O)N[C@@H](CCC(=O)O)C(N)=O` [SEQ ID NO: 33] (Ac-GGKETWWETWVMVTIPADLYEWIEE-NH2), in data set [1], the solubility is ≥ 0.1 mM. For the same compound, in data set [2], the “IP (isoelectric point)” value is on record as 4.46, the logP is 1.99 and the logD is -1.06. For the same compound, the pIC50 in data set [3] is > 6.00.

Turning to `CC[C@H](C)[C@H](NC(=O)[C@H](Cc1c[nH]c2ccccc12)NC(=O)[C@H](CCC(=O)O)NC(=O)[C@H](Cc1ccc(O)cc1)NC(=O)[C@H](CC(C)C)NC(=O)[C@H](CC(=O)O)NC(=O)[C@H](C)NC(=O)[C@@H]1CCCN1C(=O)[C@@H](NC(=O)[C@@H](NC(=O)[C@@H](NC(=O)[C@H](CCSC)NC(=O)[C@@H](NC(=O)CNC(=O)[C@H](Cc1c[nH]c2ccccc12)NC(=O)CNC(=O)[C@@H]1CCCN1C(=O)[C@@H](NC(C)=O)C(C)C)C(C)C)C(C)C)[C@@H](C)O)[C@@H](C)CC)C(=O)N[C@@H](CCC(=O)O)C(=O)N[C@@H](CCC(=O)O)C(N)=O` [SEQ ID NO: 34] (Ac-VPGWGVMVTIPADLYEWIEE-NH2), the solubility in data set [1] was < 0.05 mM. Further, in data set [2], the “IP (isoelectric point)” value came out at 5.14, the logP is -5.43 and the logD is -3.38. In addition, the pIC50 in data set [3] is > 6.00.

As for `CC[C@H](C)[C@H](NC(=O)[C@H](Cc1c[nH]c2ccccc12)NC(=O)[C@H](CCC(=O)O)NC(=O)[C@H](Cc1ccc(O)cc1)NC(=O)[C@H](CC(C)C)NC(=O)[C@H](CC(=O)O)NC(=O)[C@H](C)NC(=O)[C@@H]1CCCN1C(=O)[C@@H](NC(=O)[C@@H](NC(=O)[C@@H](NC(=O)[C@H](CCSC)NC(=O)[C@@H](NC(=O)CNC(=O)[C@H](C)NC(=O)CNC(=O)[C@@H]1CCCN1C(=O)[C@@H](NC(C)=O)C(C)C)C(C)C)C(C)C)[C@@H](C)O)[C@@H](C)CC)C(=O)N[C@@H](CCC(=O)O)C(=O)N[C@@H](CCC(=O)O)C(N)=O` [SEQ ID NO: 35] (Ac-VPGAGVMVTIPADLYEWIEE-NH2), the solubility in data set [1] was > 10 mM. In data set [2], the “IP (isoelectric point)” value came out at 5.14, the log partition coefficient (logP) is -5.43 and the logD is -3.52. In addition, the pIC50 in data set [3] was > 6.00.

Take `CC[C@H](C)[C@H](NC(=O)[C@H](Cc1c[nH]c2ccccc12)NC(=O)[C@H](CCC(=O)O)NC(=O)[C@H](Cc1ccc(O)cc1)NC(=O)[C@H](CC(C)C)NC(=O)[C@H](CC(=O)O)NC(=O)[C@H](C)NC(=O)[C@@H]1CCCN1C(=O)[C@@H](NC(=O)[C@@H](NC(=O)[C@@H](NC(=O)[C@H](CCSC)NC(=O)[C@@H](NC(=O)CNC(=O)[C@H](CCCCN)NC(=O)CNC(=O)[C@@H]1CCCN1C(=O)[C@@H](NC(C)=O)C(C)C)C(C)C)C(C)C)[C@@H](C)O)[C@@H](C)CC)C(=O)N[C@@H](CCC(=O)O)C(=O)N[C@@H](CCC(=O)O)C(N)=O` [SEQ ID NO: 36] (Ac-VPGKGVMVTIPADLYEWIEE-NH2): in data set [1], the solubility is ≥ 0.1 mM. In data set [2], the “IP (isoelectric point)” value is recorded as 8.13, the logP was -1.09 and the logD was -1.24. For the same compound, the pIC50 in data set [3] was > 6.00.

`CC[C@H](C)[C@H](NC(=O)[C@H](Cc1c[nH]c2ccccc12)NC(=O)[C@H](CCC(=O)O)NC(=O)[C@H](Cc1ccc(O)cc1)NC(=O)[C@H](CC(C)C)NC(=O)[C@H](CC(=O)O)NC(=O)[C@H](C)NC(=O)[C@@H]1CCCN1C(=O)[C@@H](NC(=O)[C@@H](NC(=O)[C@@H](NC(=O)[C@H](CCSC)NC(=O)[C@@H](NC(C)=O)C(C)C)C(C)C)[C@@H](C)O)[C@@H](C)CC)C(=O)N[C@@H](CCC(=O)O)C(=O)N[C@@H](CCC(=O)O)C(=O)N[C@H](C(=O)N1CCC[C@H]1C(=O)NCC(=O)N[C@@H](C)C(=O)NCC(=O)N[C@H](C(=O)N1CCC[C@H]1C(=O)NCC(=O)N[C@@H](C)C(=O)NCC(N)=O)C(C)C)C(C)C` [SEQ ID NO: 37] (Ac-VMVTIPADLYEWIEEVPGAGVPGAG-NH2): the solubility in data set [1] was > 10 mM. For the same compound, in data set [2], the “IP (isoelectric point)” value is recorded as 5.14 and the logD is -3.9. Besides, the pIC50 in data set [3] was > 6.70.

For `CC[C@H](C)[C@H](NC(=O)[C@H](Cc1c[nH]c2ccccc12)NC(=O)[C@H](CCC(=O)O)NC(=O)[C@H](Cc1ccc(O)cc1)NC(=O)[C@H](CC(C)C)NC(=O)[C@H](CC(=O)O)NC(=O)[C@H](C)NC(=O)[C@@H]1CCCN1C(=O)[C@@H](NC(=O)[C@@H](NC(=O)[C@@H](NC(=O)[C@H](CCSC)NC(=O)[C@@H](NC(=O)CNC(=O)[C@H](CC(=O)O)NC(=O)CNC(=O)[C@@H]1CCCN1C(=O)[C@@H](NC(C)=O)C(C)C)C(C)C)C(C)C)[C@@H](C)O)[C@@H](C)CC)C(=O)N[C@@H](CCC(=O)O)C(=O)N[C@@H](CCC(=O)O)C(N)=O` [SEQ ID NO: 39] (Ac-VPGDGVMVTIPADLYEWIEE-NH2), in data set [1], the solubility was > 10 mM. Also, in data set [2], the “IP (isoelectric point)” value was 4.2, the logP was -5.36 and the logD is -2.86. Also, the pIC50 in data set [3] is > 6.70.

`CC[C@H](C)[C@H](NC(=O)[C@H](Cc1c[nH]c2ccccc12)NC(=O)[C@H](CCC(=O)O)NC(=O)[C@H](Cc1ccc(O)cc1)NC(=O)[C@H](CC(C)C)NC(=O)[C@H](CC(=O)O)NC(=O)[C@H](C)NC(=O)[C@@H]1CCCN1C(=O)[C@@H](NC(=O)[C@@H](NC(=O)[C@@H](NC(=O)[C@H](CCSC)NC(=O)[C@@H](NC(C)=O)C(C)C)C(C)C)[C@@H](C)O)[C@@H](C)CC)C(=O)N[C@@H](CCC(=O)O)C(=O)N[C@@H](CCC(=O)O)C(=O)N[C@H](C(=O)N1CCC[C@H]1C(=O)NCC(=O)N[C@@H](CC(=O)O)C(=O)NCC(N)=O)C(C)C` [SEQ ID NO: 40] (Ac-VMVTIPADLYEWIEEVPGDG-NH2): in data set [1], the solubility was > 10 mM. In data set [2], the “IP (isoelectric point)” value came out at 4.21, the lipophilicity (logP) is -4.93 and the logD was -3.5. The pIC50 in data set [3] is > 6.70.

In the case of `CC(=O)N[C@@H](CC(=O)O)C(=O)N[C@@H](CC(C)C)C(=O)N[C@@H](CO)C(=O)N[C@@H](C)C(=O)N[C@H](C(=O)N[C@H]1CSSC[C@@H](C(=O)N[C@@H](Cc2c[nH]cn2)C(N)=O)NC(=O)[C@H](CCC(=O)O)NC(=O)[C@@H]2CCCN2C(=O)[C@H](CC(=O)O)NC(=O)[C@H](Cc2c[nH]c3ccccc23)NC(=O)[C@@H]2CCCN2C(=O)[C@H](Cc2ccccc2)NC(=O)[C@H](C)NC(=O)[C@H](Cc2c[nH]c3ccccc23)NC1=O)C(C)C` [SEQ ID NO: 41], the solubility in data set [1] was > 10 mM. In data set [2], the “IP (isoelectric point)” value is on record as 3.54, the logP is 1.24 and the logD was -1.94. Also, the pIC50 in data set [3] was > 6.00.

`CC[C@H](C)[C@H](NC(=O)[C@@H](NC(=O)[C@H](Cc1ccccc1)NC(=O)[C@H](Cc1c[nH]cn1)NC(=O)[C@@H](NC(C)=O)C(C)C)[C@@H](C)O)C(=O)N1CCC[C@H]1C(=O)N[C@@H](C)C(=O)N[C@@H](CC(=O)O)C(=O)N[C@@H](CC(C)C)C(=O)N[C@@H](Cc1c[nH]c2ccccc12)C(=O)N[C@@H](CCC(=O)O)C(=O)N[C@@H](Cc1c[nH]c2ccccc12)C(=O)N[C@H](C(=O)N[C@@H](CCCNC(=N)N)C(=O)N[C@@H](CCCNC(=N)N)C(N)=O)C(C)C` [SEQ ID NO: 112] (Ac-VHFTIPADLWEWVRR-NH2): the solubility in data set [1] is < 0.05 mM. For the same compound, in data set [2], the “IP (isoelectric point)” value was 8.99 and the logP is -4.76. Besides, the pIC50 in data set [3] was > 6.30.

As for `CC(=O)N[C@H](C(=O)N[C@@H](Cc1c[nH]cn1)C(=O)N[C@H](C(=O)N[C@H](C(=O)N[C@@H](Cc1ccccc1)C(=O)N1CCC[C@H]1C(=O)N[C@@H](C)C(=O)N[C@@H](CC(=O)O)C(=O)N[C@@H](CC(C)C)C(=O)N[C@@H](Cc1c[nH]c2ccccc12)C(=O)N[C@@H](CCC(=O)O)C(=O)N[C@@H](Cc1c[nH]c2ccccc12)C(=O)N[C@H](C(=O)N[C@@H](CCCNC(=N)N)C(=O)N[C@@H](CCCNC(=N)N)C(N)=O)C(C)C)[C@@H](C)O)C(C)C)C(C)C` [SEQ ID NO: 114] (Ac-VHVTFPADLWEWVRR-NH2), the solubility in data set [1] was < 0.05 mM. Moreover, in data set [2], the “IP (isoelectric point)” value stood at 8.99, the logP was -0.21 and the logD was -3.59. Moreover, the pIC50 in data set [3] was > 6.30.
